Data taken from patent US20110313032A1, “COMPETITIVE INHIBITORS OF TYPE II DEHYDROQUINASE ENZYME” (priority 2008, published 2011).
Like-named read-outs stand apart in the source and are kept apart here.

Columns and labels:
[1] = target: type II dehydroquinase from Streptomyces coelicolor (Streptomyces coelicolor, UniProt P15474); experiment: Inhibition of type II dehydroquinase from Streptomyces coelicolor (Ki); assay type: biochemical
Experimental: (§1) Effect of compounds of formula I of the invention on the catalytic activity of the type II dehydroquinase from various sources. The inhibitory potency of compounds I of the invention against type II dehydroquinases from Mycobacterium tuberculoris, Streptomyces coelicolor and Helicobacter pylori were assayed as it is described in the following articles: 1) Sanchez-Sixto, C.; Prazeres, V. F. V.; Castedo, L.; Lamb, H.; Hawkins, A. R.; Gonzalez-Bello, C. J. Med. Chem. 2005, 48, 4871; 2) Prazeres, V. F. V.; Sanchez-Sixto, C.; Castedo, L.; Lamb, H.; Hawkins, A. R.; Riboldi-Tunnicliffe; Coggins, J. R.; Lapthorn, A. J.; González-Bello, C. Chem Med Chem 2007, 2, 194; and 3) Sanchez-Sixto, C.; Prazeres, V. F. V.; Castedo, L.; S. W. Suh, Lamb, H.; Hawkins, A. R.; Canada, F. J.; Jiménez-Barbero, J.; González-Bello, C. Chem Med Chem 2008, 3, 756.

[2] = target: T1, type II dehydroquinase from Helicobacter pylori (Helicobacter pylori, UniProt Q48255); experiment: Inhibition of type II dehydroquinase from Helicobacter pylori (Ki); assay type: biochemical
T1 sequence (Q48255 1-167): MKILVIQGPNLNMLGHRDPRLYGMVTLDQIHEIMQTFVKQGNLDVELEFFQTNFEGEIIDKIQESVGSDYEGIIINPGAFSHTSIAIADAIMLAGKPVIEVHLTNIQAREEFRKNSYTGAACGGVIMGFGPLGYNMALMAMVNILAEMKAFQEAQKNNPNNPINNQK
Experimental: as §1

[3] = target: type II dehydroquinase from Mycobacterium tuberculosis (Mycobacterium tuberculosis, UniProt P9WPX7); experiment: biochemical
Experimental: as §1

[4] = pH = 7.0, 25° C., 50 mM Tris•HCl, read-out: Inhibition constants Ki, S. coelicolor
[5] = Inhibition constants Ki, S. coelicolor, pH = 7.0, 25° C., 50 mM Tris•HCl
[6] = pH = 7.0, 25° C., 50 mM Tris•HCl, read-out: Inhibition constants Ki, H. pylori
[7] = Inhibition constants Ki, M. tuberculosis, pH = 7.0, 25° C., 50 mM Tris•HOAc
[8] = Inhibition constants Ki, H. pylori, pH = 7.0, 25° C., 50 mM Tris•HCl
[9] = pH = 7.0, 25° C., 50 mM Tris•HOAc, read-out: Inhibition constants Ki, M. tuberculosis
[10] = inhibition constants against Mycobacterium tuberculosis

Chain of type II dehydroquinase from Streptomyces coelicolor (P15474 whole entry): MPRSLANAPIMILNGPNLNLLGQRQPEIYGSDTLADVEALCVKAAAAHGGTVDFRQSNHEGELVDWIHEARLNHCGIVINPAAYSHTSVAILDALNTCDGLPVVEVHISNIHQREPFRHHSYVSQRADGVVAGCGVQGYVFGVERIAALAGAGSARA
Chain of type II dehydroquinase from Mycobacterium tuberculosis (P9WPX7 whole entry): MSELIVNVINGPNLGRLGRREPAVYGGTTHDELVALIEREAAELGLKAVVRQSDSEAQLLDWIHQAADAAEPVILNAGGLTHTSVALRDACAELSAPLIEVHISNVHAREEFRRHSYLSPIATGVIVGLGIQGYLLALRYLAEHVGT

SMILES	Ki [1, 4] [nM]	Ki [1, 5] [nM]	Ki [2, 6] [nM]	Ki [3, 7] [nM]	also measured
O=C(O)[C@@]1(O)C[C@@H](O)[C@H](O)C(OCc2ccc3ccccc3c2)=C1Cc1ccc2ccccc2c1 [Ib-11, Sodium (1R,4S,5R)-1,4,5-trihydroxy-3-(naphth-2-yl)methoxy-2-(naphth-2-yl)methylcyclohex-2-en-1-carboxylate]	32				
C/C=C/c1cc2c(s1)[C@@H](OC(C)=O)[C@H](OC(C)=O)C[C@]2(OC(C)=O)C(=O)OC					melting point: 140 to 143 °C
O=C1C(O)C(O)CC(O)(C(=O)O)C1Cc1c(F)c(F)c(F)c(F)c1F (single isomer, unassigned) [(2R)-Ia-6]		242	2600	47	
O=C(O)[C@@]1(O)C[C@@H](O)[C@H](O)C(OCc2cccs2)=C1Cc1cccs1 [Ib-8]	140		15000		
Cc1ccc(CC2C(=O)C(O)C(O)CC2(O)C(=O)O)cc1 (single isomer, unassigned) [(2R)-Ia-4]		22	250	89	
O=C1C(O)C(O)CC(O)(C(=O)O)C1Cc1c(F)c(F)c(F)c(F)c1F (single isomer, unassigned) (hydrate or solvate) [(2S)-Ia-6]					melting point: 123 to 125 °C
Cc1cc2c(s1)[C@@H](O)[C@H](O)C[C@]2(O)C(=O)O [Ic-2, (4R, 6R, 7S)-4,6,7-trihydroxy-2-methyl-4,5,6,7-tetrahydrobenzo[b]thiophen-4-carboxylic acid]	3150			400	Ki [2, 8]: 1600 nM
C=CC[C@H]1C(=O)[C@@H](O)[C@H](O)C[C@]1(O)C(=O)O (hydrate or solvate) [(2R)-Ia-1, (2R)-2-allyl-3-dehydroquinic acid]					melting point: 144 to 148 °C
O=C([O-])[C@@]1(O)C[C@@H](O)[C@H](O)C(OCc2cccs2)=C1Cc1cc2ccccc2s1.[Na+] (hydrate or solvate) [Ib-12, Sodium (1R,4S,5R)-1,4,5-trihydroxy-3-(thien-2-yl)methoxy-2-(benzo[b]thiophen-2-yl)methylcyclohex-2-en-1-carboxylate]					melting point: 191 to 194 °C
CCCc1cc2c(s1)[C@@H](O)[C@H](O)C[C@]2(O)C(=O)O [Ic-13, (4R,6R,7S)-4,6,7-trihydroxy-2-propyl-4,5,6,7-tetrahyclrobenzo[b]thiophene-4-carboxylic acid]	22				Ki [2, 8]: 120 nM
C=CC[C@@H]1C(=O)[C@@H](O)[C@H](O)C[C@]1(O)C(=O)O (hydrate or solvate) [(2S)-Ia-1, (2S)-2-allyl-3-dehydroquinic acid]					melting point: 127 to 130 °C
O=C1C(O)C(O)CC(O)(C(=O)O)C1Cc1c(F)c(F)c(F)c(F)c1F (single isomer, unassigned) [(2S)-Ia-6]		6.5		74	
CC(C)c1cc2c(s1)[C@@H](O)[C@H](O)C[C@]2(O)C(=O)O					melting point: 125 to 127 °C
CCCC1C(=O)C(O)C(O)CC1(O)C(=O)O [(2R)-Ia-2, (2R)-2-propyl-3-dehydroquinic acid]		76000	20000		Ki [3, 9]: 1700 nM
O=C([O-])[C@@]1(O)C[C@@H](O)[C@H](O)C(OCc2ccc3sccc3c2)=C1Cc1cccs1.[Na+] [Ib-13, Sodium (1R,4S,5R)-1,4,5-trihydroxy-3-(benzo[b]thiophen-5-yl)methoxy-2-(thien-2-yl)methylcyclohex-2-en-1-carboxylate]		280			times more effective than the 2,3-dehydroquinic acid, H. pylori ([2]; Ki ratio): 16.190 times; times more affinity with respect of the natural substrate, H. pylori ([2]; Km of substrate / Ki): about 21.000 times; Ki ([2]; read-out: affinities in the case of H. pylori): 21 nM
C=C(C)c1cc2c(s1)[C@@H](O)[C@H](O)C[C@]2(O)C(=O)O [Ic-5]	1880			860	Ki [2, 8]: 38000 nM

SMILES	Ki [1, 4] [nM]	Ki [1, 5] [nM]	Ki [2, 6] [nM]	Ki [3, 7] [nM]	also measured
O=C1C(O)C(O)CC(O)(C(=O)O)C1Cc1ccc2sccc2c1 (single isomer, unassigned) [(2R)-Ia-7]		4	160	29	
Cc1ccc2sc(COC3=C[C@@](O)(C(=O)O)C[C@@H](O)[C@@H]3O)cc2c1 [Ib-3, Sodium (1R, 4S, 5R)-1,4,5-trihydroxy-3-(5-methylbenzo[b]thiophen-2-yl)methoxycyclohex-2-en-1-carboxylate]		2.4	97	40	
O=C(O)[C@@]1(O)C[C@@H](O)[C@H](O)C(OCc2cccs2)=C1Cc1cc2ccccc2s1 [Ib-12, Sodium (1R,4S,5R)-1,4,5-trihydroxy-3-(thien-2-yl)methoxy-2-(benzo[b]thiophen-2-yl)methylcyclohex-2-en-1-carboxylate]		279	46		
O=C(O)C1(O)CC(O)C(O)C(OCc2cc3ccccc3s2)=C1Cc1cc2ccccc2s1 (stereo not drawn) [Ib-2]		2.8	140	4.25	
COc1ccc(CC2C(=O)C(O)C(O)CC2(O)C(=O)O)cc1 (single isomer, unassigned) [(2R)-Ia-5]		34	170		times more effective than 2,3-dehydroquinic acid, M. tuberculosis ([3]; Ki ratio): 8000 times; times more affinity with respect of the natural substrate, M. tuberculosis ([3]; Km of substrate / Ki): 1600 times; Ki [3, 10]: 25 nM
Cc1ccc2sc(COC3=C(Cc4cc5cc(C)ccc5s4)[C@@](O)(C(=O)O)C[C@@H](O)[C@@H]3O)cc2c1 [Ib-4, Sodium (1R, 4S, 5R)-1,4,5-trihydroxy-3-(5-methylbenzo[b]thiophen-2-yl)methoxy-2-(5-methylbenzo[b]thiophen-2-yl)methylcyclohex-2-en-1-carboxylate]		13	70		Ki [3, 9]: 190 nM
C=CC[C@@H]1C(=O)[C@@H](O)[C@H](O)C[C@]1(O)C(=O)O [(2S)-Ia-1, (2S)-2-allyl-3-dehydroquinic acid]		6700	21500		Ki [3, 9]: 1850 nM
O=C(O)[C@@]1(O)C[C@@H](O)[C@H](O)c2sc(CCc3ccccc3)cc21 [Ic-12, (4R,6R,7S)-4,6,7-trihydroxy-2-phenethyl-4,5,6,7-tetrahydrobenzo[b]thiophene-4-carboxylic acid]	46				Ki [2, 8]: 1700 nM
C/C=C/c1cc2c(s1)[C@@H](O)[C@H](O)C[C@]2(O)C(=O)O [Ic-4, (4R, 6R, 7S)-4,6,7-trihydroxy-2-[(E)-prop-1-enyl]-4,5,6,7-tetrahydrobenzo[b]thiophen-4-carboxylic acid]	93			97	Ki [2, 8]: 350 nM
O=C(O)[C@]1(O)C=C(OCc2cc3ccccc3s2)[C@@H](O)[C@H](O)C1 [Ib-1, Sodium (1R, 4S, 5R)-3-(benzo[b]thiophen-2-yl)methoxy-1,4,5-trihydroxycyclohex-2-en-1-carboxylate]	0.48		160		Ki ([1]; read-out: affinities in the case of S. coelicolor): 0.48 nM; Ki [3, 10]: 3.2 nM
C=C(c1ccccc1)c1cc2c(s1)[C@@H](O)[C@H](O)C[C@]2(O)C(=O)O [Ic-10, (4R,6R,7S)-4,6,7-trihydroxy-2-(1-phenylvinyl)-4,5,6,7-tetrahydro-benzo[b]thiophen-4-carboxylic acid]	4650				Ki [2, 8]: 20500 nM
C=CC[C@H]1C(=O)[C@@H](O)[C@H](O)C[C@]1(O)C(=O)O [(2R)-Ia-1, (2R)-2-allyl-3-dehydroquinic acid]		10200	9400		Ki [3, 9]: 760 nM
C=CCC1=C(OCc2cc3ccccc3s2)[C@@H](O)[C@H](O)C[C@]1(O)C(=O)O [Ib-5, Sodium (1R, 4S, 5R)-2-allyl-3-(benzo[b]thiophen-2-yl)methoxy-1,4,5-tri-hydroxycyclohex-2-en-1-carboxylate]		15	1100		Ki [3, 9]: 1240 nM
O=C(O)[C@]1(O)C=C(OCc2ccc3sccc3c2)[C@@H](O)[C@H](O)C1 [Ib-7, Sodium (1R,4S,5R)-1,4,5-trihydroxy-3[(benzo[b]thiophen-5-yl)methoxy]cyclohex-2-en-1-carboxylate]		0.3	166		Ki [3, 9]: 31 nM
O=C(O)[C@]1(O)C=C(OCc2ccc3ccccc3c2)[C@@H](O)[C@H](O)C1 [Ib-.10, Sodium (1R,4S,5R)-1,4-trihydroxy-3-(2-naphyl)methoxycyclohex-2-en-1-carboxylate]	< 0.26				
C=Cc1cc2c(s1)[C@@H](O)[C@H](O)C[C@]2(O)C(=O)O [Ic-3, (4R, 6R, 7S)-4,6,7-trihydroxy-2-vinyl-4,5,6,7-tetrahydrobenzo[b]thiophen-4-carboxylic acid]	810			52	Ki [2, 8]: 1250 nM
